One data set relates to MCF-7 cells. Conditions: 4 days, 5 μM (2 μg/ml); cited from earlier work.
Data set [1] relates to hormone independent mammary carcinomas. The conditions noted are these: very high doses in vivo; cited from earlier work.
In data set [2] the test system is postmenopausal women with metastatic breast cancer. Conditions: women initially treated; cited from earlier work.
Data set [3] relates to postmenopausal breast cancer patients heavily exposed to endocrine therapy. The conditions noted are these: 15 mg daily p.o., cited from earlier work.
The conditions of data set [4]: prostate cancer patients, 5 mg p.o. per day; cited from earlier work.
For a further data set, the system named is MCF7 Cells. The data set can be described thus: in vitro direct cytotoxicity, Cell titer blue viability assay. It is filed as cell-based. The conditions noted are these: MCF7 cells (hormone-sensitive), 72 hrs incubation, 1% FBS assay media. The procedure:
(§1) Cells were maintained in vitro in RPMI 1640 containing 10% (v/v) heat inactivated fetal bovine serum (FBS) and 2 mM L-glutamine (growth media) at 37° C. in 5% CO2 and humidified conditions. Cells were harvested, washed, re-suspended into growth medium and counted. The cells were re-suspended into assay media (RPMI 1640+1% (v/v) heat inactivated FBS+ and 2 mM L-glutamine) at 0.5-1×10^5 cells/ml (dependent on cell type), and plated into 96-well assay plates (Corning, black-wall plates) and 50 μl/well aliquots.
(§2) Plates were incubated O/N at 37° C. in 5% humidified CO2 prior to addition of the compounds. […] Fosfestrol was dissolved in sterile water at stock concentration of 60 mM.
(§3) Stocks of all compounds were then serially diluted and final concentration to which cells were exposed were: 300, 150, 75, 37.5, 18.75, 9.4, 4.7, 2.3, 1.2 and 0.6 μM. Positive control was Cisplatin. Cisplatin was diluted in 1% FBS medium to give a stock concentration of 1 mM. Cisplatin stock was serial diluted and final concentration to which cells were exposed was: 100, 50, 25, 12.5, 6.3, […], 1.6, 0.8, 0.4, 0.2 μM.
(§4) Plates were incubated for 72 hrs at 37° C. in 5% humidified CO-2 after addition of the compounds. Viability of the cells was assessed with the Cell titer blue® (Promega) assay. […] Fluorescence was measured with a Flex II station plate reader. […]

A further data set relates to MDA-MB-231 Cells. The data set is described as above. It is filed as cell-based. Conditions: MDA-MB-231 cells (hormone-insensitive), 72 hrs incubation, 1% FBS assay media. The procedure:
as §1, §2, §3, §4

These results are taken from patent US20160199298A1, “FOSFESTROL FOR USE IN CURATIVE OR PALLIATIVE TREATMENT OF CANCER IN FEMALE MAMMALS” (CHAMAELEO PHARMA BVBA, priority 2012, published 2016).

Turning to `CC/C(=C(/CC)c1ccc(OP(=O)(O)O)cc1)c1ccc(O)cc1` [DES monophosphate], in the data set on MCF-7 cells, the “reduction in cell growth” value is “no effect at all”.

Turning to `CC/C(=C(/CC)c1ccc(O)cc1)c1ccc(O)cc1` [DES, diethylstilbestrol], the “reduction in cell growth” value in the data set with MCF-7 cells was “no effect at all”. The “effect on hormone independent mammary carcinomas” value in data set [1] is listed as “no effect”. In addition, in data set [2], the 5-year survival is listed as 35% and the median survival is reported as 3.0 years. Also, in data set [3], the “efficacy in highly pretreated patients” value is “effective”. The “patients who stopped therapy because of side effects” value in data set [3] (six patients) is recorded as 19%. Further, the “increase in non-cancer related deaths, mostly cardiovascular” value in data set [4] is given as 36%.

In the case of `N.N.[Cl][Pt][Cl]` [Cisplatin], the IC50 came to 2.8 µM in the data set on MCF7 Cells and 13 µM in the data set on MDA-MB-231 Cells.

For `CC/C(=C(\c1ccccc1)c1ccc(OCCN(C)C)cc1)c1ccccc1` [tamoxifen], in data set [2], the 5-year survival was 16% and the median survival is 2.4 years.

One may read the IC50 as the concentration that inhibits the measured activity by half.
